Patent US20070254882A1, “Sulfamide Derivatives and Pharmaceutical Composition for Upregulation of Lipid Metabolism Comprising Same” (CRYSTAL GENOMICS, INC., priority 2004, published 2007)

Key:
[1] = tested on: ob/ob mice; experiment: Anti-obesity test: lipid metabolism-related materials and glucose in blood of ob/ob mice; format: in vivo; details: 28 days; for GLU (glucose) / HDL (HDL-cholesterol) / LDL (LDL-cholesterol) / NEFA (free fatty acid) / TG (triglyceride): 100 mg/kg oral twice a day, fasted 16 hours, plasma
Protocol: (§1) In order to evaluate the anti-obesity activity of the inventive compound, B6.V-Lepob/J mice (laboratory animal team of Korea Research Institute of Chemical Technology) were used for tests and lean mice as a control. Ob/ob mice are model animals for insulin-independent diabetes, suitable for studying the effect of an anti-obesity drug.
(§2) 42 mice weighing 38.6±1.4 g were selected randomly from a pool of ob/ob mice (7-9 weeks old), and divided into groups of 7 mice each. The test was carried out at a constant temperature (24±0.5° C.) and humidity (55±5%) using ventilation system (10-12 times/hour), under a specific pathogen free (SPF) condition created in an automatic on-off cycle of 12 hours.
(§3) The groups were divided to a control group treated only with an excipient, a positive control group treated with fenofibrate, and test groups treated with each of the compounds of Examples 5, 62 and 65, at dosage 100 mg/10 ml/kg body weight. Each of the test and control compounds was diluted with 0.5% CMC to a concentration to match the above dosage, and administered orally using a syringe into the stomach twice a day (9:00 and 18:00) for a period of 4 weeks, and the following characteristics were measured.
3) Measurement of Lipid Metabolism-Related Materials and Insulin Concentration in Blood
28 days after the administration, experimental mice were fasted for 16 hours, and the concentrations of lipid metabolism-related materials such as triglyceride, free fatty acid and cholesterol, and insulin in blood were measured. Specifically, a blood sample was collected from the ocular venous plexus of each mouse and centrifuged to separate plasma. The glucose (GLU), HDL-cholesterol (HDL), LDL-cholesterol (LDL), triglyceride (TG) and free fatty acid (NEFA) levels were measured by enzymatic assay using 2 kinds of Selectra (Vital Lab), an automatic biochemical analyzer, and the insulin concentration was measured by ELISA using an insulin detection kit (Shibayagi).

[2] = target: T1, human PPAR α (Homo sapiens, UniProt Q07869); experiment: Exogeneous PPAR α agonist assay (GAL4 DNA binding domain/PPAR α ligand binding domain, luciferase) in 293T cells; format: cell-based; parameters: scale not given here; details: 25 μM compound, 48 hours, luciferase activity increase relative to the control
T1 construct: expressed in transfected cells; host or cells: HepG2 (ATCC HB-8065) or 293T cells (ATCC CRL-1573)
T1 sequence (Q07869 239-466 limits assumed): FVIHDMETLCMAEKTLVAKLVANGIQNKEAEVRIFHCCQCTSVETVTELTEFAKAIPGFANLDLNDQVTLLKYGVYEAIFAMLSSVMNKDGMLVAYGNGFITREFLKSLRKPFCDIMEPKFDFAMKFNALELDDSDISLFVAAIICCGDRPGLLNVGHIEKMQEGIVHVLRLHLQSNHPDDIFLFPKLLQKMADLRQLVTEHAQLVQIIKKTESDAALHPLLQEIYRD
Outline: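 HepG2 or 293T cells (2×10^4/well) lipofectamine-transfected 3 hours with PPAR α, UAS firefly-luciferase and Renilla-luciferase constructs. Compounds then added at 25 μM final and incubated 48 hours at 37° C. PPAR α activation measured as dual firefly/Renilla luciferase luminescence.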

[3] = tested on: ob/ob mice; experiment: Oral glucose tolerance test (OGTT) in ob/ob mice; format: in vivo; details: for total changes in the glucose concentration represented by AUC compared to the control group: 0-120 min, P<0.05, P<0.005 and P<0.01, FIG. 3b; for glucose concentration during the fast compared to the control group: ob/ob mice, 28 days, fasted 16 hours, P<0.05, FIG. 3c
Protocol: as §1, §2, §3
4) Oral Glucose Tolerance Test (OGTT)
28 days after the administration, each of the experimental mice was fasted for 16 hours, 2 g/kg of glucose was administered thereto, a blood sample was collected from the ocular venous plexus thereof at 0, 15, 30, 60 and 120 min from the administration, and the glucose concentration and AUC (area under the curve, Skrumsager et al., J Clin Pharmacol. 43, 1244-1256, 2003) were determined.

[4] = tested on: ob/ob mice; experiment: Anti-obesity test: dissection, fat weights in ob/ob mice; format: in vivo; details: ob/ob mice after completing all tests; for adiposity index (fat weight/(body weight—fat weight)): FIG. 4b; for total fat weight: P<0.01, P<0.005, FIG. 4a
Protocol: as §1, §2, §3
After completing all tests, each of the mice in test treated with the compounds of Examples 5 and 62 and the positive control group treated with fenofibrate was sacrificed, the whole blood, liver, muscle and white adipose tissue thereof were extracted. White adipose tissued was divided into visceral fat and subcutaneous fat, and the amounts of the total fats and liver tissue were weighed separately.

[5] = tested on: ob/ob mice; experiment: Anti-obesity test: feed intake in ob/ob mice; format: in vivo; details: 100 mg/kg oral twice a day, first week of the test, P<0.005, FIG. 1a
Protocol: as §1, §2, §3
1) General Symptoms and Observation of Dead Animal
The conditions, behavioral changes, addictive symptoms and the death rate were observed constantly during the test period.

[6] = tested on: ob/ob mice; experiment: Anti-obesity test: body weight measurement in ob/ob mice; format: in vivo; details: 100 mg/kg oral twice a day
Protocol: as §1, §2, §3
2) Body Weight Measurement
The average body weight of each group was measured every 3 days after the administration, and the changes in the average body weight and body weight gain (measured body weight—initial body weight) were analyzed.

Activity at 25 μM Step 1 293T cell [2] | SMILES | GLU (glucose) [1] [mg/dL] | HDL (HDL-cholesterol) [1] [mg/dL] | LDL (LDL-cholesterol) [1] [mg/dL] | NEFA (free fatty acid) [1] [UEq/l] | TG (triglyceride) [1] [mg/dL] | GLU concentration compared to the control or positive control group [1] | total changes in the glucose concentration represented by AUC compared to the control group ([3]; 2 g/kg glucose) | glucose concentration during the fast compared to the control group [3] | weight of subcutaneous fat [4] | weight of visceral fat [4] | adiposity index (fat weight/(body weight—fat weight)) [4] | total fat weight [4] | daily feed intake compared to the control group [5] | also measured
2 | Cc1oc(-c2ccc(C(F)(F)F)cc2)nc1COc1cccc(CN(CC(=O)O)S(=O)(=O)N(C)C)c1 [Example 5, [N—(N,N-dimethylamino)sulfonyl-N-[3-[[2-(4-trifluoromethylphenyl)-5-methyloxazol-4-yl]methoxy]benzyl]amino]acetic acid] | 218.1 ± 125.5 | 292.1 ± 24.7 | 24.3 ± 4.3 | 880 ± 273 | 47.3 ± 12.4 | much lower | much lower | significantly low | reduced | reduced | reduced | low | significantly reduced | LDL concentration ([1]; P<0.05): low
2 | Cc1ccc(-c2nc(CCOc3cccc(CN(CC(=O)O)S(=O)(=O)N(C)C)c3)c(C)o2)cc1 [Example 62, [N—(N,N-dimethylamino)sulfonyl-N-[3-[2-[2-(4-methylphenyl)-5-methyloxazol-4-yl]ethoxy]benzyl]amino]acetic acid] | 190.4 ± 77.6 | 381.8 ± 40.1 | 37.8 ± 5.2 | 976 ± 238 | 37.9 ± 6.6 | much lower | much lower | significantly low | reduced | reduced | reduced | low | significantly reduced | body weight effect compared to the positive control group treated with fenofibrate [6]: improved effect; change in the body weight gain compared to the control group ([6]; at day 7 from the administration, P<0.01): evidently lower; change in the average body weight compared to the control group ([6]; at day 10 from the administration, P<0.01, P<0.005): markedly reduced; HDL concentration [1]: high; triglyceride concentration compared to a control ([1]; P<0.05): significantly lower; glucose concentration at 30 and 60 min after the glucose administration compared to the control group ([3]; 2 g/kg glucose, P<0.01, P<0.05, FIG. 3a): significantly low
